Assay results: patent US12522602B2, “Derivatives having 2,3-dihydro-1H-indene or 2,3-dihydrobenzofuran moiety or pharmaceutically acceptable salt thereof and pharmaceutical compositions comprising the same” (YUHAN CORPORATION, priority 2019, dated 2026)

Tested on: GM1 production in Jurkat cells
Experiment: cells
Type: cell-based
Conditions: Homo sapiens, Jurkat, 72 h

Structure (SMILES)	IC50 [nM]
CC1(C)Cc2cc(-c3cc4ccccc4s3)ccc2C1NC(=O)O[C@@H]1CN2CCC1CC2 (stereo partly drawn) [Example 186, (S)-quinuclidin-3-yl (5-(benzo[b]thiophen-2-yl)-2,2-dimethyl-2,3-dihydro-1H-inden-1-yl)carbamate]	82.6
CC(C)(C)Oc1cc(-c2ccc3c(c2)CC(C)(C)C3NC(=O)O[C@@H]2CN3CCC2CC3)ccn1 (stereo partly drawn) [Example 187, (S)-quinuclidin-3-yl (5-(2-(tert-butoxy)pyridin-4-yl)-2,2-dimethyl-2,3-dihydro-1H-inden-1-yl)carbamate]	31.7
COc1ncc(-c2ccc3c(c2)CC(C)(C)C3NC(=O)O[C@@H]2CN3CCC2CC3)cc1C(F)(F)F (stereo partly drawn) [Example 188, (S)-quinuclidin-3-yl (5-(6-methoxy-5-(trifluoromethyl)pyridin-3-yl)-2,2-dimethyl-2,3-dihydro-1H-inden-1-yl)carbamate]	46.2
COc1ccc2cc(-c3ccc4c(c3)CC(C)(C)C4NC(=O)O[C@@H]3CN4CCC3CC4)ccc2c1 (stereo partly drawn) [Example 189, (S)-quinuclidin-3-yl (5-(6-methoxynaphthalen-2-yl)-2,2-dimethyl-2,3-dihydro-1H-inden-1-yl)carbamate]	23
CC1(C)Cc2cc(-c3cccc(-c4ccccc4)c3)ccc2C1NC(=O)O[C@@H]1CN2CCC1CC2 (stereo partly drawn) [Example 190, (S)-quinuclidin-3-yl (5-([1,1′-biphenyl]-3-yl)-2,2-dimethyl-2,3-dihydro-1H-inden-1-yl)carbamate]	13.3
CC1(C)Cc2cc(-c3ccc4nccnc4c3)ccc2C1NC(=O)O[C@@H]1CN2CCC1CC2 (stereo partly drawn) [Example 191, (S)-quinuclidin-3-yl (2,2-dimethyl-5-(quinoxalin-6-yl)-2,3-dihydro-1H-inden-1-yl)carbamate]	123
Cc1cc(C)cc(-c2ccc3c(c2)CC(C)(C)C3NC(=O)O[C@@H]2CN3CCC2CC3)c1 (stereo partly drawn) [Example 192, (S)-quinuclidin-3-yl (5-(3,5-dimethylphenyl)-2,2-dimethyl-2,3-dihydro-1H-inden-1-yl)carbamate]	25.8
CC1(C)Cc2cc(-c3ccco3)ccc2C1NC(=O)O[C@@H]1CN2CCC1CC2 (stereo partly drawn) [Example 193, (S)-quinuclidin-3-yl (5-(furan-2-yl)-2,2-dimethyl-2,3-dihydro-1H-inden-1-yl)carbamate]	15.3
Cc1cc(-c2ccc3c(c2)CC(C)(C)C3NC(=O)O[C@@H]2CN3CCC2CC3)cc(C)c1OC(C)C (stereo partly drawn) [Example 194, (S)-quinuclidin-3-yl (5-(4-isopropoxy-3,5-dimethylphenyl)-2,2-dimethyl-2,3-dihydro-1H-inden-1-yl)carbamate]	47.6
COc1c(C)cc(-c2ccc3c(c2)CC(C)(C)C3NC(=O)O[C@@H]2CN3CCC2CC3)cc1C (stereo partly drawn) [Example 195, (S)-quinuclidin-3-yl (5-(4-methoxy-3,5-dimethylphenyl)-2,2-dimethyl-2,3-dihydro-1H-inden-1-yl)carbamate]	36.1
CC(C)Oc1ccc(-c2ccc3c(c2)CC(C)(C)C3NC(=O)O[C@@H]2CN3CCC2CC3)cn1 (stereo partly drawn) [Example 196, (S)-quinuclidin-3-yl (5-(6-isopropoxypyridin-3-yl)-2,2-dimethyl-2,3-dihydro-1H-inden-1-yl)carbamate]	23.2
CC1(C)Cc2cc(-c3cccc(OCCF)c3)ccc2C1NC(=O)O[C@@H]1CN2CCC1CC2 (stereo partly drawn) [Example 197, (S)-quinuclidin-3-yl (5-(3-(2-fluoroethoxy)phenyl)-2,2-dimethyl-2,3-dihydro-1H-inden-1-yl)carbamate]	8.7
CCOc1ccc(C)cc1-c1ccc2c(c1)CC(C)(C)C2NC(=O)O[C@@H]1CN2CCC1CC2 (stereo partly drawn) [Example 198, (S)-quinuclidin-3-yl (5-(2-ethoxy-5-methylphenyl)-2,2-dimethyl-2,3-dihydro-1H-inden-1-yl)carbamate]	11.7
CCCOc1cccc(-c2ccc3c(c2)CC(C)(C)C3NC(=O)O[C@@H]2CN3CCC2CC3)c1 (stereo partly drawn) [Example 199, (S)-quinuclidin-3-yl (2,2-dimethyl-5-(3-propoxyphenyl)-2,3-dihydro-1H-inden-1-yl)carbamate]	5.5
COc1ccc(C)cc1-c1ccc2c(c1)CC(C)(C)C2NC(=O)O[C@@H]1CN2CCC1CC2 (stereo partly drawn) [Example 200, (S)-quinuclidin-3-yl (5-(2-methoxy-5-methylphenyl)-2,2-dimethyl-2,3-dihydro-1H-inden-1-yl)carbamate]	3.7
CCCCOc1ccc(F)cc1-c1ccc2c(c1)CC(C)(C)C2NC(=O)O[C@@H]1CN2CCC1CC2 (stereo partly drawn) [Example 201, (S)-quinuclidin-3-yl (5-(2-butoxy-5-fluorophenyl)-2,2-dimethyl-2,3-dihydro-1H-inden-1-yl)carbamate]	38.2
CCCCOc1ccc(-c2ccc3c(c2)CC(C)(C)C3NC(=O)O[C@@H]2CN3CCC2CC3)cc1Cl (stereo partly drawn) [Example 202, (S)-quinuclidin-3-yl (5-(4-butoxy-3-chlorophenyl)-2,2-dimethyl-2,3-dihydro-1H-inden-1-yl)carbamate]	26.3
CCCOc1ccc(-c2ccc3c(c2)CC(C)(C)C3NC(=O)O[C@@H]2CN3CCC2CC3)c(OCCC)c1 (stereo partly drawn) [Example 203, (S)-quinuclidin-3-yl (5-(2,4-dipropoxyphenyl)-2,2-dimethyl-2,3-dihydro-1H-inden-1-yl)carbamate]	8.2

Structure (SMILES)	IC50 [nM]
CCOc1ccc(-c2ccc3c(c2)CC(C)(C)C3NC(=O)O[C@@H]2CN3CCC2CC3)cc1Cl (stereo partly drawn) [Example 204, (S)-quinuclidin-3-yl (5-(3-chloro-4-ethoxyphenyl)-2,2-dimethyl-2,3-dihydro-1H-inden-1-yl)carbamate]	57.2
CC(C)COc1cccc(-c2ccc3c(c2)CC(C)(C)C3NC(=O)O[C@@H]2CN3CCC2CC3)c1 (stereo partly drawn) [Example 205, (S)-quinuclidin-3-yl (5-(3-isobutoxyphenyl)-2,2-dimethyl-2,3-dihydro-1H-inden-1-yl)carbamate]	7.6
CCOc1ccc(-c2ccc3c(c2)CC(C)(C)C3NC(=O)O[C@@H]2CN3CCC2CC3)c(C)c1 (stereo partly drawn) [Example 206, (S)-quinuclidin-3-yl (5-(4-ethoxy-2-methylphenyl)-2,2-dimethyl-2,3-dihydro-1H-inden-1-yl)carbamate]	14
CCCOc1ccc(-c2ccc3c(c2)CC(C)(C)C3NC(=O)O[C@@H]2CN3CCC2CC3)cc1Cl (stereo partly drawn) [Example 207, (S)-quinuclidin-3-yl (5-(3-chloro-4-propoxyphenyl)-2,2-dimethyl-2,3-dihydro-1H-inden-1-yl)carbamate]	58.6
CC(C)Oc1ccc(F)cc1-c1ccc2c(c1)CC(C)(C)C2NC(=O)O[C@@H]1CN2CCC1CC2 (stereo partly drawn) [Example 208, (S)-quinuclidin-3-yl (5-(5-fluoro-2-isopropoxyphenyl)-2,2-dimethyl-2,3-dihydro-1H-inden-1-yl)carbamate]	67.4
CC(C)Oc1ccc(-c2ccc3c(c2)CC(C)(C)C3NC(=O)O[C@@H]2CN3CCC2CC3)cc1F (stereo partly drawn) [Example 209, (S)-quinuclidin-3-yl (5-(3-fluoro-4-isopropoxyphenyl)-2,2-dimethyl-2,3-dihydro-1H-inden-1-yl)carbamate]	32.1
COc1ccc(Cl)cc1-c1ccc2c(c1)CC(C)(C)C2NC(=O)O[C@@H]1CN2CCC1CC2 (stereo partly drawn) [Example 210, (S)-quinuclidin-3-yl (5-(5-chloro-2-methoxyphenyl)-2,2-dimethyl-2,3-dihydro-1H-inden-1-yl)carbamate]	7.5
Cc1ccc(F)c(-c2ccc3c(c2)CC(C)(C)C3NC(=O)O[C@@H]2CN3CCC2CC3)c1 (stereo partly drawn) [Example 211, (S)-quinuclidin-3-yl (5-(2-fluoro-5-methylphenyl)-2,2-dimethyl-2,3-dihydro-1H-inden-1-yl)carbamate]	13.2
CCOc1ccc(Cl)cc1-c1ccc2c(c1)CC(C)(C)C2NC(=O)O[C@@H]1CN2CCC1CC2 (stereo partly drawn) [Example 212, (S)-quinuclidin-3-yl (5-(5-chloro-2-ethoxyphenyl)-2,2-dimethyl-2,3-dihydro-1H-inden-1-yl)carbamate]	19.1
CCCOc1ccc(F)cc1-c1ccc2c(c1)CC(C)(C)C2NC(=O)O[C@@H]1CN2CCC1CC2 (stereo partly drawn) [Example 213, (S)-quinuclidin-3-yl (5-(5-fluoro-2-propoxyphenyl)-2,2-dimethyl-2,3-dihydro-1H-inden-1-yl)carbamate]	39.8
CCCOc1cccc(F)c1-c1ccc2c(c1)CC(C)(C)C2NC(=O)O[C@@H]1CN2CCC1CC2 (stereo partly drawn) [Example 214, (S)-quinuclidin-3-yl (5-(2-fluoro-6-propoxyphenyl)-2,2-dimethyl-2,3-dihydro-1H-inden-1-yl)carbamate]	64.2
Cc1ccc(-c2ccc3c(c2)CC(C)(C)C3NC(=O)O[C@@H]2CN3CCC2CC3)cc1F (stereo partly drawn) [Example 215, (S)-quinuclidin-3-yl (5-(3-fluoro-4-methylphenyl)-2,2-dimethyl-2,3-dihydro-1H-inden-1-yl)carbamate]	14.9
CCCOc1ccc(-c2ccc3c(c2)CC(C)(C)C3NC(=O)O[C@@H]2CN3CCC2CC3)cc1F (stereo partly drawn) [Example 216, (S)-quinuclidin-3-yl (5-(3-fluoro-4-propoxyphenyl)-2,2-dimethyl-2,3-dihydro-1H-inden-1-yl)carbamate]	28.7
CC(C)Oc1ccc(Cl)cc1-c1ccc2c(c1)CC(C)(C)C2NC(=O)O[C@@H]1CN2CCC1CC2 (stereo partly drawn) [Example 217, (S)-quinuclidin-3-yl (5-(5-chloro-2-isopropoxyphenyl)-2,2-dimethyl-2,3-dihydro-1H-inden-1-yl)carbamate]	72.1
CCCCOc1cccc(-c2ccc3c(c2)CC(C)(C)C3NC(=O)O[C@@H]2CN3CCC2CC3)c1 (stereo partly drawn) [Example 218, (S)-quinuclidin-3-yl (5-(3-butoxyphenyl)-2,2-dimethyl-2,3-dihydro-1H-inden-1-yl)carbamate]	6.7
Cc1cc(F)cc(-c2ccc3c(c2)CC(C)(C)C3NC(=O)O[C@@H]2CN3CCC2CC3)c1 (stereo partly drawn) [Example 219, (S)-quinuclidin-3-yl (5-(3-fluoro-5-methylphenyl)-2,2-dimethyl-2,3-dihydro-1H-inden-1-yl)carbamate]	30.4
Cc1ccc(F)cc1-c1ccc2c(c1)CC(C)(C)C2NC(=O)O[C@@H]1CN2CCC1CC2 (stereo partly drawn) [Example 220, (S)-quinuclidin-3-yl (5-(5-fluoro-2-methylphenyl)-2,2-dimethyl-2,3-dihydro-1H-inden-1-yl)carbamate]	17.6
